The values that follow are results of earlier work, collected in US20140348873A1, “Urea-Silicone Gel for Hyperkeratosis Treatment” (PROFESSIONAL COMPOUNDING CENTERS OF AMERICA, priority 2013, published 2014).

The conditions of this series: general background statement; no experiment described.

On to `NC(N)=O` [Urea], for which the “water content of the skin, level reached with urea” value is 97.8%.
